{"source": "paper PMC6104039", "about": "(Nature Communications, 2018)", "key": {"SkM [1]": {"tested_on": "SkM", "assay": "Lipidomic profiling of skeletal muscle (quadriceps) of mice on chow or HFD", "format": "in vivo", "text": "(§1) Male C57BL6/J mice were obtained from the Animal Resources Centre in Perth (WA, Australia). […] Treatment was commenced at the same time as mice were randomised to dietary groups. The experiments were approved by the UNSW animal care and ethics committee (ACEC 15/48B), and followed guidelines issued by the National Health and Medical Research Council of Australia.\nLipids were extracted from frozen tissue samples or cells using a two-phase procedure with methyl-tert-butyl ether (MTBE)/methanol/water (10:3:2.5, v/v/v)[67]. Frozen tissue samples (~20 mg) were homogenized in 0.2 mL methanol containing 0.01% butylated hydroxytoluene (BHT), using a Precellys 24 homogenizer and Cryolys cooling unit (Bertin Technologies) with CK14 (1.4-mm ceramic) beads. The homogenates were spiked with an internal standard mixture comprising 5 nmole 19:0/19:0 phosphatidylcholine and 2 nmole each of 17:0/17:0 phosphatidylethanolamine, 17:0/17:0 phosphatidylserine, 17:0/17:0 d5-diacylglycerol, 17:0/17:0 phosphatidylglycerol, 14:0/14:0/14:0/14:0 cardiolipin, 18:1/12:0 SM, 18:1/17:0 ceramide, 18:1/12:0 glucosylceramide, 18:1/12:0 lactosylceramide, 18:1/12:0 sulfatide (all from Avanti Polar Lipids, USA), and 17:0/17:0/17:0 TAG (Cayman Chemical, USA), then transferred to 10 mL screw cap glass tubes. The homogenization tubes containing beads were then washed with another 0.3 mL methanol, and this wash was combined with the first methanol extract, after which 1.7 mL MTBE was added and the samples were sonicated in an ice-cold sonicating water bath (Thermoline Scientific, Australia) for 30 min. Phase separation was induced by addition of 417 µL of mass spectrometry-grade water followed by vortexing and centrifugation at 1000 × g for 10 min. The upper organic phase was collected into 5 mL glass tubes. The lower phase was re-extracted by adding 1 mL MTBE, 300 μL methanol, and 250 μL water. The organic phases were combined in the 5 mL glass tubes and dried under vacuum in a Savant SC210 SpeedVac (Thermo Scientific), then reconstituted in 500 μL methanol and stored at −20 °C until analysis.\nLipidomic profiling was performed on a QExactive Plus mass spectrometer with heated electrospray ionization (HESI) probe and a Dionex UltiMate 2000 LC pump (Thermo Fisher Scientific). Extracts were resolved on a 2.1 × 100 mm Waters Acquity C18 UPLC column (1.7 µm […]), using a binary gradient in which mobile phase A consisted of acetonitrile:water (60:40), 10 mM ammonium formate, 0.1% formic acid; and mobile phase B was isopropanol:acetonitrile (90:10), 10 mM ammonium formate, 0.1% formic acid[68]. The flow rate was 260 µL/min and column oven 55 °C. Data was acquired in full scan/data-dependent MS^2 mode (full scan resolution 70,000 FWHM, scan range 400–1200 m/z). The ten most abundant ions in each cycle were subjected to MS^2 using an isolation window of 1.4 m/z, collision energy 30 eV, resolution 17,500, maximum integration time 110 ms and dynamic exclusion window 10 s. An exclusion list of background ions was used based on a solvent blank. LipidSearch v4.1.30 software (ThermoFisher Scientific) was used for chromatogram alignment, peak identification and integration. Each lipid peak was manually verified for column elution time and characteristic fragment ions. Data were then exported to an Excel spreadsheet for normalisation of each lipid to its class-specific internal standard, and lipid concentrations were calculated relative to the internal standard.\nData were log transformed, then subjected to two-tailed t-tests adjusted for multiple comparisons using GraphPad PRISM (Benjamini, Krieger and Yekutieli correction, Q = 1%)."}, "SkM [2]": {"tested_on": "SkM", "assay": "Targeted quantification of sphingosine and dihydrosphingosine in SkM", "format": "in vivo, mice", "settings": "5 mg/kg daily", "text": "as §1"}, "C57BL6/J mice": {"tested_on": "C57BL6/J mice", "assay": "Body composition (EchoMRI) and fat pad weights in mice on chow or HFD", "format": "in vivo", "protocol": "as §1\nBody composition (lean mass and fat mass) was determined by EchoMRI-900 Body Composition Analyser (EchoMRI Corporation Pte Ltd, Singapore) in accordance with the manufacturer’s instructions."}, "[3]": {"settings": "Muscle lipidomic data, Chow Vehicle vs Chow P053, Mean1 minus Mean2"}, "[4]": {"settings": "Muscle lipidomic data, Chow Vehicle vs Chow P053, Mean2 = Chow P053 group"}, "[5]": {"settings": "Muscle lipidomic data, HFD Vehicle vs HFD P053, Mean1 minus Mean2"}, "[6]": {"settings": "Muscle lipidomic data, HFD Vehicle vs HFD P053, Mean2 = HFD P053 group"}}, "note": "Where “and” joins values, the source holds several entries; their conditions need not be identical. Identical values can stand only once. Entries after “also recorded” stand apart in the source; their conditions may differ."}
{"compound": "C[C@@](N)(CO)CCc1ccc(OCc2ccc(Cl)c(Cl)c2)cc1", "note": "[P053, (S)-2-amino-4-(4-(3,4-dichlorobenzyloxy)phenyl)-2-methylbutan-1-ol]", "values": [{"measurement": "SM 40:1 content of skeletal muscle", "setting": "SkM [1]; HFD + P053, individual mice", "result": "27.34 and 27.26 and 26.32 and 23.00 and 31.62 and 23.79 and 31.23 and 22.04 and 24.26 and 29.13 and 27.02 and 34.08 and 33.01 and 18.95 and 25.13 and 25.49 and 34.47 and 24.05 and 33.50"}, {"measurement": "SM 40:2 content of skeletal muscle", "setting": "SkM [1]; HFD + P053, individual mice", "result": "1.78 and 2.91 (2×) and 1.98 and 2.11 and 2.83 and 1.89 and 2.53 and 1.77 and 2.29 and 2.59 and 3.38 and 2.49 and 1.96 and 2.67 and 2.64 and 2.84 and 2.34 and 2.94"}, {"measurement": "SM 42:1 content of skeletal muscle", "setting": "SkM [1]; HFD + P053, individual mice", "result": "15.46 and 16.53 and 18.68 and 19.65 and 22.92 and 14.56 and 23.18 and 14.90 and 18.70 and 19.26 and 17.69 and 25.18 and 22.26 and 12.72 and 19.43 and 19.06 and 23.08 and 18.56 and 31.22"}, {"measurement": "SM 42:2 content of skeletal muscle", "setting": "SkM [1]; HFD + P053, individual mice", "result": "53.70 and 57.56 and 54.97 and 42.97 and 63.03 and 48.46 and 60.01 and 50.89 and 52.69 and 51.87 and 48.15 and 70.42 and 61.77 and 37.14 and 54.20 and 54.85 and 64.93 and 49.70 and 71.83"}, {"measurement": "SM 42:3 content of skeletal muscle", "setting": "SkM [1]; HFD + P053, individual mice", "result": "9.08 and 11.26 and 8.06 and 8.54 and 12.73 and 9.01 and 12.20 and 10.73 and 15.91 and 12.10 and 11.91 and 13.64 and 11.55 and 7.81 and 10.86 and 9.89 and 12.79 and 9.17 and 13.47"}, {"measurement": "reduction of most triacylglycerol (TAG) species in SkM", "setting": "SkM [1]; HFD + P053 compared to HFD + vehicle", "result": "more than 50%"}, {"measurement": "Cer(d18:1/18:0)+H, Difference", "setting": "SkM [1]; [3]", "result": 0.4848}, {"measurement": "Cer(d18:2/18:0)+H, Difference", "setting": "SkM [1]; [3]", "result": 0.6042}, {"measurement": "Cer(d18:1/18:0)+H, Mean2", "setting": "SkM [1]; [4]", "result": 2.896}, {"measurement": "Cer(d18:2/18:0)+H, Mean2", "setting": "SkM [1]; [4]", "result": 0.4179}, {"measurement": "Cer(d18:1/18:0)+H, Difference", "setting": "SkM [1]; [5]", "result": 0.7206}, {"measurement": "Cer(d18:1/22:0)+H, Difference", "setting": "SkM [1]; [5]", "result": -0.3135}, {"measurement": "Cer(d18:1/24:0)+H, Difference", "setting": "SkM [1]; [5]", "result": -0.4027}, {"measurement": "Cer(d18:1/24:1)+H, Difference", "setting": "SkM [1]; [5]", "result": -0.3555}, {"measurement": "Cer(d18:2/18:0)+H, Difference", "setting": "SkM [1]; [5]", "result": 0.8901}, {"measurement": "SM(d41:1)+H, Difference", "setting": "SkM [1]; [5]", "result": -0.3059}, {"measurement": "SM(d42:2)+H, Difference", "setting": "SkM [1]; [5]", "result": -0.2817}, {"measurement": "Cer(d18:1/18:0)+H, Mean2", "setting": "SkM [1]; [6]", "result": 2.811}, {"measurement": "Cer(d18:1/22:0)+H, Mean2", "setting": "SkM [1]; [6]", "result": 0.3563}, {"measurement": "Cer(d18:1/24:0)+H, Mean2", "setting": "SkM [1]; [6]", "result": 0.4756}, {"measurement": "Cer(d18:1/24:1)+H, Mean2", "setting": "SkM [1]; [6]", "result": 1.172}, {"measurement": "Cer(d18:2/18:0)+H, Mean2", "setting": "SkM [1]; [6]", "result": 0.1066}, {"measurement": "SM(d41:1)+H, Mean2", "setting": "SkM [1]; [6]", "result": 1.941}, {"measurement": "SM(d42:2)+H, Mean2", "setting": "SkM [1]; [6]", "result": 3.999}, {"measurement": "DG levels in SkM", "setting": "SkM [1]; chow or HFD", "result": "does not affect; also recorded: unaffected"}, {"measurement": "SkM TAG levels", "setting": "SkM [1]; normal chow", "result": "did not affect"}, {"measurement": "C18 ceramide levels in SkM", "setting": "SkM [1]; pilot study, 7 days, 1 mg/kg/day", "result": "no effect"}, {"measurement": "reduction of C18 ceramide levels in SkM", "setting": "SkM [1]; pilot study, 7 days, 5 mg/kg/day", "result": 31, "unit": "%"}, {"measurement": "dihydrosphingosine levels in SkM", "setting": "SkM [2]", "result": "not notably affected"}, {"measurement": "increase of sphingosine levels in SkM", "setting": "SkM [2]; HFD", "result": 22, "unit": "%"}, {"measurement": "increase of sphingosine levels in SkM", "setting": "SkM [2]; chow diet, not significant", "result": 11, "unit": "%"}, {"measurement": "whole-body fat mass and weight of individual white adipose depots", "setting": "C57BL6/J mice; HFD, 5 mg/kg, 4–6 weeks", "result": "significantly reduced"}, {"measurement": "reduction of the gain in fat pad mass on a HFD", "setting": "C57BL6/J mice; both fat pads (inguinal and epididymal)", "result": 44, "unit": "%"}, {"measurement": "gain in epididymal fat pad weight, HFD compared to chow", "setting": "C57BL6/J mice; with P053 treatment", "result": 0.29, "unit": "g"}, {"measurement": "gain in inguinal fat pad weight, HFD compared to chow", "setting": "C57BL6/J mice; with P053 treatment", "result": 0.15, "unit": "g"}]}
